Columns and labels:
[1] = tested on: positive Arthus reaction in guinea pigs; test: Positive Arthus reaction in guinea pig; format: in vivo, Hartley male guinea pigs; conditions: 30 days, FIG. 11
Method: To 2% egg albumin solution, the same amount of Freund's complete adjuvant was added to prepare an emulsion. The emulsion was injected in 4 times by one time/week to Hartley male guinea pigs at a heel, under the skin and in the femoralis muscle, for sensitization. After 10 days from the final sensitization, 0.1 ml of 1% egg albumin solution was injected under the skin of the back to measure the area of resulting edema. The organogermanium compound was orally dosed for 30 days from the first sensitization in an amount of 0.1, 1.0 and 10 mg/kg/day.

[2] = tested on: NZB/W F1 mouse lymphocytes; test: Antibody production in culture system of NZB/W F1 mouse lymphocytes; format: cell-based, NZB/W F1 male mice; conditions: 1 to 2 μg/ml; FIG. 10a
[3] = tested on: chronic non A non B hepatitis; test: Chronic non A non B hepatitis, 30/60/90 mg/day, 12 weeks (Table 4B); format: in vivo, human patients
Method: Search on effectiveness of the organogermanium compound to chronic B and non A non B hepatitises and preferable amount of dose thereof.
Therefore, 30 mg, 60 mg and 90 mg/day/body were set. Experimental period of time was set for 12 weeks. […]

[4] = tested on: spleen cells (PFC), SRBC sensitized mice; test: Antibody production ability in normal mouse (spleen cell PFC); format: in vivo, ICR mice; conditions: 0.1, 1.0 and 10 mg/kg oral
Method: To each group of ICR mice (age, 5 weeks), 2×10^8 and 2 ×10^7 of sheep red blood corpuscles (SRBC), as an […], were venously injected for sensitization in a tail vein of the mice. Then, immediately, the organogermanium compound dissolved in 4% cattle serum albumin solution was orally dosed to the sensitized mice in an amount of 0.1, 1.0 and 10 mg/kg, respectively. After 4 days from the sensitization, spleen cells were extracted to measure the number of PFC therein, which was used as an index of the antibody productivity.

[5] = tested on: chronic non A non B hepatitis; test: Long term dosing in chronic non A non B hepatitis (In Vivo Utilization Example 6); design: species or system human patients; conditions: for Liver tissue improvement: Ballooning of cell: 4 patients; for Liver tissue improvement: Moderation of lobule: 8 patients; for Liver tissue improvement: Fatty degeneration: 9 patients; for Glisson's capsule improvement: Piecemeal necrosis: 13 patients; for Liver tissue improvement: Mobilization image of Kupfer cell: 16 patients; for Glisson's capsule improvement: Fibrosis / Glisson's capsule improvement: Round cell infiltration / Liver tissue improvement: Cobwebby necrosis / Liver tissue improvement: Degenerative necrosis in cell: 17 patients
Method: A capsule containing the organogermanium compound was dosed to patients infected with chronic non A non B hepatitis over a long period of time to check safety and effectiveness of the organogermanium compound.
(a) Number of patients for analyzation: 68 persons.
Group A: 39 persons (dose; 30 mg/day/body), and
Group B: 29 persons (dose; 60 mg/day/body).
(b) Mean dosing period of time
(c) Number of patients who continuously dose over 48 weeks

[6] = LD50 for beagle dog; conditions: in vivo
[7] = tested on: chronic non A non B hepatitis; test: Chronic non A non B hepatitis, 15/30/60 mg/day, 12 weeks (Table 5B); format: in vivo, human patients
Method: Search on utility or effectiveness of the organogermanium compound on patients who are infected with chronic B hepatitis, or with non A non B hepatitis, and show "positive" to HBe antigen as well as a preferable amount of dose thereof.
The amount of dose has been set as follows, by taking the results given in In Vivo Utilization Example 1 into consideration.
(a) 60 mg/day/body showing most preferable data in effectiveness,
(b) 30 mg/day/body showing effectiveness in some Experiments, and
(c) 15 mg/day/body (for taking control data).
Experimental period of time was set for 12 weeks.
(a) Examination of liver functions (GOT, GPT, total bilirubin, LDH, y-GTP, and y-globulin), and
(b) Examination with use of HBV marker (HBe-Ag).

[8] = design: species or system human; conditions: in vivo
Method: A capsule containing various amount of effective organogermanium compound were dosed to each of healthy adult persons to check kinetics of the drug. […] The excretion ratio of the drug in urine was 30-50% in cases of any dose.
Therefore, it has been judged that the influence of the hepatitis on pharmakinetics of the drug is small.

[9] = 30 mg/day, patients of total 35
[10] = 60 mg/day, patients of total 26

3-oxygermylpropionic acid [Compound No. 1]
inhibition of phlegmasia (edema area) ([1]; 0.1 mg/kg/day oral): a recognizable inhibition of the phlegmasia | inhibition of phlegmasia (edema area) ([1]; 1 mg/kg/day oral): a recognizable inhibition of the phlegmasia | antibody production ability [2]: an inhibition in antibody production ability | Effectiveness (slight or more) ([3]; 30 mg/day): 31% | General judgement: Improvement (slight or more) ([3]; 30 mg/day): 29% | Safety (quite) ([3]; 30 mg/day): 92% | Side effect ([3]; 30 mg/day): 8.3% | Effectiveness (slight or more) ([3]; 60 mg/day): 44% | General judgement: Improvement (slight or more) ([3]; 60 mg/day): 45% | Safety (quite) ([3]; 60 mg/day): 91% | Side effect ([3]; 60 mg/day): 8.8% | A 1-P change ([3]; 60 mg/day, 12 weeks): .dwnarw. ** | GOT change ([3]; 60 mg/day, 12 weeks): .dwnarw. ** | GPT change ([3]; 60 mg/day, 12 weeks): .dwnarw. * | Effectiveness (slight or more) ([3]; 90 mg/day): 38% | General judgement: Improvement (slight or more) ([3]; 90 mg/day): 41% | Safety (quite) ([3]; 90 mg/day): 90% | Side effect ([3]; 90 mg/day): 10.0% | spleen cell PFC ([4]; SRBC 2×10^7, FIG. 8b): increase it | spleen cell PFC ([4]; SRBC 2×10^8, FIG. 8a): tendancy to decrease spleen cell PFC | Ratio of improvement: Middle or more ([5]; 30 mg/day): 11.4% | Ratio of improvement: Slight or more ([5]; 30 mg/day): 26.9% | Getting worse (functions of liver) [5, 9]: 3 | Middle improved (functions of liver) [5, 9]: 2 | No change (functions of liver) [5, 9]: 20 | Remarkably improved (functions of liver) [5, 9]: 2 | Ratio of improvement: Middle or more ([5]; 60 mg/day): 34.3% | Ratio of improvement: Slight or more ([5]; 60 mg/day): 57.7% | Getting worse (functions of liver) [5, 10]: 0 | Middle improved (functions of liver) [5, 10]: 4 | No change (functions of liver) [5, 10]: 11 | Remarkably improved (functions of liver) [5, 10]: 3 | Liver tissue improvement: Evaluation ([5]; ≥middle, 1/17): 5.9% | Liver tissue improvement: Bridging necrosis ([5]; ≥middle, 3 patients): 0% | Liver tissue improvement: Ballooning of cell ([5]; ≥middle): 0% | Liver tissue improvement: Moderation of lobule ([5]; ≥middle): 0% | Liver tissue improvement: Fatty degeneration ([5]; ≥middle): 0% | Glisson's capsule improvement: Piecemeal necrosis ([5]; ≥middle): 0% | Liver tissue improvement: Mobilization image of Kupfer cell ([5]; ≥middle): 6.3% | Glisson's capsule improvement: Fibrosis ([5]; ≥middle): 0% | Glisson's capsule improvement: Round cell infiltration ([5]; ≥middle): 0% | Liver tissue improvement: Cobwebby necrosis ([5]; ≥middle): 5.9% | Liver tissue improvement: Degenerative necrosis in cell ([5]; ≥middle): 5.9% | Liver tissue improvement: Ballooning of cell ([5]; ≥slight): 0. % | Liver tissue improvement: Moderation of lobule ([5]; ≥slight): 12.5% | Liver tissue improvement: Fatty degeneration ([5]; ≥slight): 22.2% | Liver tissue improvement: Evaluation ([5]; ≥slight, 10/17): 58.8% | Glisson's capsule improvement: Piecemeal necrosis ([5]; ≥slight): 38.5% | Liver tissue improvement: Mobilization image of Kupfer cell ([5]; ≥slight): 50.0% | Glisson's capsule improvement: Fibrosis ([5]; ≥slight): 5.9% | Glisson's capsule improvement: Round cell infiltration ([5]; ≥slight): 17.6% | Liver tissue improvement: Cobwebby necrosis ([5]; ≥slight): 52.9% | Liver tissue improvement: Degenerative necrosis in cell ([5]; ≥slight): 52.9% | 15 mg/body as fraction of LD50 for beagle dog [6]: 1/12000 | Effectiveness (slight or more) ([7]; 15 mg/day): 33% | General judgement: Improvement (slight or more) ([7]; 15 mg/day): 36% | Safety (quite) ([7]; 15 mg/day): 91% | Side effect ([7]; 15 mg/day): 9.4% | Total bilirubin change ([7]; 15 mg/day, 12 weeks): .dwnarw. * | γ-GPT change ([7]; 15 mg/day, 12 weeks): .dwnarw. + | Effectiveness (slight or more) ([7]; 30 mg/day): 36% | General judgement: Improvement (slight or more) ([7]; 30 mg/day): 37% | Safety (quite) ([7]; 30 mg/day): 94% | Side effect ([7]; 30 mg/day): 5.6% | Effectiveness (slight or more) ([7]; 60 mg/day): 55% | General judgement: Improvement (slight or more) ([7]; 60 mg/day): 57% | Safety (quite) ([7]; 60 mg/day): 95% | Side effect ([7]; 60 mg/day): 5.4% | GOT change ([7]; 60 mg/day, 12 weeks): .dwnarw. * | GPT change ([7]; 60 mg/day, 12 weeks): .dwnarw. ** | Total bilirubin change ([7]; 60 mg/day, 12 weeks): .dwnarw. * | γ-GPT change ([7]; 60 mg/day, 12 weeks): .dwnarw. * | γ-Globulin change ([7]; 60 mg/day, 12 weeks): .dwnarw. * | excretion ratio of the drug in urine ([8]; human, po): 30-50% | time to maximum plasma concentration ([8]; human, po): 3 h | AUC versus dose [8]: AUC increases as the amount of dose increases | AUC, Cmax and excretion ratio in urine, hepatitis patients versus healthy persons [8]: tended to increase | plasma concentration on first day versus 7th day [8]: same level | tendency to accumulate [8]: does not show a tendency to accumulate

Source: US5340806A, “Composition containing organogermanium compound and immunity adjusting agent comprising the composition” (Sanwa Kagaku Kenkyusho Co., Ltd., priority 1984, dated 1994)
